Laboratory results published in paper PMC9696494, “Garcixanthone E and Garcimangophenone C: New Metabolites from Garcinia mangostana and Their Cytotoxic and Alpha Amylase Inhibitory Potential” (Life, 2022).

Target: T1, α-amylase
T1 construct: gene AMY2A
Assay: EnzChek Ultra Amylase assay kit, enzyme inhibition
Type: biochemical

Structure (SMILES) | IC50 [µM]
COc1cc2oc3cc(O)c(/C=C/C(C)(C)O)c(O)c3c(=O)c2c(CC=C(C)C)c1OC [compound 1, 1,3-dihyroxy-6,7-dimethoxy-2-(3-hydroxy-3-methylbut-1-enyl)-8-(3-methylbut-2-enyl)-xanthone] | 17.8
C[C@@H]1O[C@@H](Oc2cc(O)cc(O)c2C(=O)c2cccc(O)c2)[C@H](O)[C@H](O)[C@H]1O [compound 9, garcimangophenone C] | 12.9
